Drawing on ChEMBL document CHEMBL1159209, “Antineoplastic agents, 294. Variations in the formation of pancratistatin and related isocarbostyrils in Hymenocallis littoralis” (J Nat Prod, 1995), this text covers Activity for one molecule.

Experiment [1] relates to P388. In words: In vivo cytotoxicity against mouse P388 cells. It counts as functional, organism-based.
Experiment [2] concerns M5076. As to the kind of experiment: In vivo cytotoxicity against mouse M5076 cells. The format is functional, organism-based.

SMILES strings stand for the structures. The source made the active and inactive calls. No cut-off for these calls is given here.

As for `O=C1N[C@H]2[C@H](O)[C@H](O)[C@@H](O)[C@H](O)[C@@H]2c2cc3c(c(O)c21)OCO3`, the result in experiment [1] and in experiment [2] was Active.
